Molecules are shown by their SMILES. “And” between values parts separate entries of the source, which are not always exact repeats. Equal values may be shown once. Toxic doses and inconclusive results are not listed.

This assay deals with P388 leukemia ip, CD2F1 mice, survival T/C. As to the kind of experiment: NCI In Vivo Anticancer Drug Screen. Data for tumor model P388 Leukemia (intraperitoneal) in CD2F1 (CDF1) mice. The settings on record: endpoint: median survival time, higher = longer survival. The procedure, abridged:
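Mice carrying the transplanted tumor received test compound or vehicle. Survival was recorded in each group, and the value is the treated-group measurement divided by that of the vehicle-treated control group.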

[1] abbreviates: dose: 50.0 mg/kg/injection, schedule: Q01DX005 (ip), vehicle: Klucel (hydroxypropylcellulose) (HPC).
Where [2] appears, read: dose: 100.0 mg/kg/injection, schedule: Q01DX005 (ip), vehicle: Klucel (hydroxypropylcellulose) (HPC).
[3] abbreviates: dose: 200.0 mg/kg/injection, schedule: Q01DX005 (ip), vehicle: Klucel (hydroxypropylcellulose) (HPC).
Setting [4] is: dose: 25.0 mg/kg/injection, schedule: Q04DX003 (ip), vehicle: saline with Tween-80.
Where [5] appears, read: dose: 100.0 mg/kg/injection, schedule: Q01DX001 (ip), vehicle: saline with Tween-80.
The mark [6] stands for this setting: dose: 200.0 mg/kg/injection, schedule: Q01DX001 (ip), vehicle: saline with Tween-80.
Setting [7] is: dose: 400.0 mg/kg/injection, schedule: Q01DX001 (ip), vehicle: saline with Tween-80.
Setting [8] is: dose: 50.0 mg/kg/injection, schedule: Q01DX009 (ip), vehicle: Klucel (hydroxypropylcellulose) (HPC).
[9] abbreviates: dose: 100.0 mg/kg/injection, schedule: Q01DX009 (ip), vehicle: Klucel (hydroxypropylcellulose) (HPC).
The mark [10] stands for this setting: dose: 200.0 mg/kg/injection, schedule: Q01DX009 (ip), vehicle: Klucel (hydroxypropylcellulose) (HPC).
The mark [11] stands for this setting: dose: 50.0 mg/kg/injection, schedule: Q04DX003 (ip), vehicle: saline with Tween-80.
The mark [12] stands for this setting: dose: 100.0 mg/kg/injection, schedule: Q04DX003 (ip), vehicle: saline with Tween-80.
Setting [13] is: dose: 50.0 mg/kg/injection, schedule: Q01DX005 (ip), vehicle: saline with Tween-80.
The mark [14] stands for this setting: dose: 100.0 mg/kg/injection, schedule: Q01DX005 (ip), vehicle: saline with Tween-80.
Setting [15] is: dose: 200.0 mg/kg/injection, schedule: Q01DX005 (ip), vehicle: saline with Tween-80.
Setting [16] is: dose: 60.0 mg/kg/injection, schedule: Q01DX005 (ip), vehicle: saline with Tween-80.
The mark [17] stands for this setting: dose: 120.0 mg/kg/injection, schedule: Q01DX005 (ip), vehicle: saline with Tween-80.
[18] abbreviates: dose: 240.0 mg/kg/injection, schedule: Q01DX005 (ip), vehicle: saline with Tween-80.
[19] abbreviates: dose: 200.0 mg/kg/injection, schedule: Q01DX001 (ip), vehicle: Klucel (hydroxypropylcellulose) (HPC).
Setting [20] is: dose: 400.0 mg/kg/injection, schedule: Q01DX001 (ip), vehicle: Klucel (hydroxypropylcellulose) (HPC).

In the case of `O=C(O)C(=O)O.[NH-]CC[NH-].[Pt+2]`, the T/C (dose: 3.12 mg/kg/injection, schedule: Q04DX002 (ip), vehicle: saline with Tween-80) is 117 % of control.

On to `O=[N+]([O-])c1ccc(-c2nnn(CCCN3CCOCC3)c2N2CCCCC2)cc1`, for which the T/C reads like this: under setting [1], 107 % of control; under setting [2], 107 % of control; under setting [3], 107 % of control.

As to `C#CC(OC(=O)NC1CCCCC1)(c1ccccc1)c1ccccc1`, the T/C was 100 % of control (dose: 4.4 mg/kg/injection, schedule: Q01DX009 (ip), vehicle: saline with Tween-80); 98 % of control (dose: 6.6 mg/kg/injection, schedule: Q01DX009 (ip), vehicle: saline with Tween-80); 93 % of control (dose: 10.0 mg/kg/injection, schedule: Q01DX009 (ip), vehicle: saline with Tween-80); 100 % of control (dose: 15.0 mg/kg/injection, schedule: Q01DX009 (ip), vehicle: saline with Tween-80); 118 % of control (dose: 22.0 mg/kg/injection, schedule: Q04DX003 (ip), vehicle: saline with Tween-80); 108 % of control under setting [4]. Moreover, the T/C by setting is: (dose: 33.0 mg/kg/injection, schedule: Q01DX009 (ip), vehicle: saline with Tween-80) 163 % of control; (dose: 33.0 mg/kg/injection, schedule: Q04DX003 (ip), vehicle: saline with Tween-80) 122 % of control; (dose: 50.0 mg/kg/injection, schedule: Q01DX009 (ip), vehicle: saline with Tween-80) 102 % of control; (dose: 75.0 mg/kg/injection, schedule: Q04DX003 (ip), vehicle: saline with Tween-80) 163 % of control.

As to `CC(/C=N\N=C(N)N)=N/NC(N)=O`, the T/C runs as follows: (dose: 50.0 mg/kg/injection, schedule: Q01DX009 (ip), vehicle: saline) 92 % of control; (dose: 100.0 mg/kg/injection, schedule: Q01DX009 (ip), vehicle: saline) 108 % of control; (dose: 200.0 mg/kg/injection, schedule: Q01DX009 (ip), vehicle: saline) 115 % of control.

As to `Cn1c(=O)[nH]cc(F)c1=O`, the T/C (dose: 10.0 mg/kg/injection, schedule: Q01DX009 (ip), vehicle: saline) was 104 % of control; the T/C (dose: 20.0 mg/kg/injection, schedule: Q01DX009 (ip), vehicle: saline) was 100 % of control; the T/C (dose: 40.0 mg/kg/injection, schedule: Q01DX009 (ip), vehicle: saline) is 98 % of control.

Turning to `CC(C)(C(=O)O[Si](C)(C)C)/C(=C/[Si](C)(C)C)O[Si](C)(C)C`, the T/C by setting is: under setting [5], 103 % of control; under setting [6], 99 % of control; under setting [7], 102 % of control.

Turning to `NC(=S)n1nc(-c2ccccc2)c(N=Nc2cccc(Cl)c2Cl)c1-c1ccccc1`, the T/C was 89 % of control under setting [5], 94 % of control under setting [6] and 97 % of control under setting [7].

As to `COc1cc(CCN=Cc2cccc(OC)c2O)c([N+](=O)[O-])cc1OC`, the T/C was 93 % of control under setting [1], 93 % of control under setting [2] and 93 % of control under setting [3].

As for `NC(=O)C[C@H](NP(=S)(c1ccccc1)c1ccccc1)C(=O)O`, the T/C was 102 % of control under setting [8], 98 % of control under setting [9] and 110 % of control under setting [10].

Turning to `CN(C)c1ccc([N+]([O-])=NC#N)cc1`, the T/C under setting [4] was 93 % of control, the T/C under setting [11] is 95 % of control and the T/C under setting [12] is 92 % of control.

Take `N/C(=N\C(=O)OCc1ccccc1)NC(=O)OCc1ccccc1`: the T/C runs as follows: (dose: 25.0 mg/kg/injection, schedule: Q01DX009 (ip), vehicle: Klucel (hydroxypropylcellulose) (HPC)) 99 % of control and 109 % of control; under setting [8], 104 % of control and 105 % of control; under setting [9], 103 % of control and 104 % of control; under setting [10], 99 % of control and 100 % of control; (dose: 400.0 mg/kg/injection, schedule: Q01DX009 (ip), vehicle: Klucel (hydroxypropylcellulose) (HPC)) 99 % of control and 93 % of control.

Take `O=C1C=CC(=Nc2ccc3[nH]c4ccccc4c3c2)C=C1`: the T/C under setting [13] was 101 % of control and 92 % of control and 96 % of control; the T/C under setting [14] is 104 % of control and 93 % of control and 96 % of control; the T/C under setting [15] is 108 % of control and 121 % of control and 96 % of control; the T/C (dose: 400.0 mg/kg/injection, schedule: Q01DX005 (ip), vehicle: saline with Tween-80) was 108 % of control.

Take `Cc1cc(Cl)ccc1NC(=O)Oc1ccc(C#N)cc1`: the T/C was 90 % of control under setting [16], 90 % of control under setting [17] and 90 % of control under setting [18].

With `C=C(C)c1nc(Oc2ccccc2)nc(Oc2ccccc2)n1`, the T/C is 88 % of control under setting [19] and 89 % of control under setting [20].

In the case of `O=C(O)C(=O)O.[NH-]CCC[NH-].[Pt+2]`, the T/C is, setting by setting: (dose: 0.63 mg/kg/injection, schedule: Q04DX003 (ip), vehicle: other) 88 % of control; (dose: 2.5 mg/kg/injection, schedule: Q04DX003 (ip), vehicle: other) 153 % of control; (dose: 5.0 mg/kg/injection, schedule: Q04DX003 (ip), vehicle: other) 160 % of control; (dose: 6.25 mg/kg/injection, schedule: Q04DX002 (ip), vehicle: saline) 158 % of control; (dose: 12.5 mg/kg/injection, schedule: Q04DX002 (ip), vehicle: saline) 203 % of control.

For the molecule `CCOC(OCC)C(N)=O`, the T/C is 105 % of control under setting [13], 109 % of control under setting [14] and 100 % of control under setting [15].

`OCc1cc2ccc3ccccc3c2[nH]1`: the T/C was 96 % of control under setting [16], 89 % of control under setting [17] and 91 % of control under setting [18].

On to `CC(=O)c1oc2cc([N+](=O)[O-])c3ccccc3c2c1C`, for which the T/C is, setting by setting: under setting [16], 107 % of control; under setting [17], 98 % of control; under setting [18], 88 % of control.

Consider `CC(=O)c1c(C)oc(C)c1-c1ccc2c(c1)OCO2`, for which the T/C (dose: 60.0 mg/kg/injection, schedule: Q01DX005 (ip), vehicle: Klucel (hydroxypropylcellulose) (HPC)) is 108 % of control; the T/C (dose: 120.0 mg/kg/injection, schedule: Q01DX005 (ip), vehicle: Klucel (hydroxypropylcellulose) (HPC)) is 103 % of control; the T/C (dose: 240.0 mg/kg/injection, schedule: Q01DX005 (ip), vehicle: Klucel (hydroxypropylcellulose) (HPC)) was 104 % of control.

Turning to `Cc1ccc(S(=O)(=O)NCCCl)cc1`, the T/C runs as follows: under setting [4], 104 % of control; under setting [11], 99 % of control; under setting [12], 114 % of control; (dose: 200.0 mg/kg/injection, schedule: Q04DX003 (ip), vehicle: saline with Tween-80) 98 % of control.

Turning to `CCCC1(CCC)CCC2C3CCC4CC(O)CCC4(C)C3CCC2(C)N1O` (stereo unspecified), the T/C is 92 % of control (dose: 100.0 mg/kg/injection, schedule: Q01DX001 (ip), vehicle: Klucel (hydroxypropylcellulose) (HPC)); 89 % of control under setting [19]; 91 % of control under setting [20].

`Oc1cc2c(cc1C(c1ccc3c(c1)OCO3)N1CCN(C(c3ccc4c(c3)OCO4)c3cc4c(cc3O)OCO4)CC1)OCO2` (stereo unspecified): the T/C under setting [16] is 89 % of control, the T/C under setting [17] is 87 % of control and the T/C under setting [18] was 89 % of control.

The values are drawn from PubChem BioAssay AID330 (DTP/NCI, 2004).
